Reference: patent US10183954B2, “Oxathiolane carboxylic acids and derivatives for the treatment and prophylaxis of virus infection” (Hoffmann-La Roche Inc., priority 2016, dated 2019)

The compounds below were run against human TLR7 (Homo sapiens (Human), UniProt Q9NYK1) (assay: HEK293-Blue-hTLR-7 cells assay (SEAP reporter)). Settings: 20 hours incubation.
Chain of human TLR7 (Q9NYK1 27-1049): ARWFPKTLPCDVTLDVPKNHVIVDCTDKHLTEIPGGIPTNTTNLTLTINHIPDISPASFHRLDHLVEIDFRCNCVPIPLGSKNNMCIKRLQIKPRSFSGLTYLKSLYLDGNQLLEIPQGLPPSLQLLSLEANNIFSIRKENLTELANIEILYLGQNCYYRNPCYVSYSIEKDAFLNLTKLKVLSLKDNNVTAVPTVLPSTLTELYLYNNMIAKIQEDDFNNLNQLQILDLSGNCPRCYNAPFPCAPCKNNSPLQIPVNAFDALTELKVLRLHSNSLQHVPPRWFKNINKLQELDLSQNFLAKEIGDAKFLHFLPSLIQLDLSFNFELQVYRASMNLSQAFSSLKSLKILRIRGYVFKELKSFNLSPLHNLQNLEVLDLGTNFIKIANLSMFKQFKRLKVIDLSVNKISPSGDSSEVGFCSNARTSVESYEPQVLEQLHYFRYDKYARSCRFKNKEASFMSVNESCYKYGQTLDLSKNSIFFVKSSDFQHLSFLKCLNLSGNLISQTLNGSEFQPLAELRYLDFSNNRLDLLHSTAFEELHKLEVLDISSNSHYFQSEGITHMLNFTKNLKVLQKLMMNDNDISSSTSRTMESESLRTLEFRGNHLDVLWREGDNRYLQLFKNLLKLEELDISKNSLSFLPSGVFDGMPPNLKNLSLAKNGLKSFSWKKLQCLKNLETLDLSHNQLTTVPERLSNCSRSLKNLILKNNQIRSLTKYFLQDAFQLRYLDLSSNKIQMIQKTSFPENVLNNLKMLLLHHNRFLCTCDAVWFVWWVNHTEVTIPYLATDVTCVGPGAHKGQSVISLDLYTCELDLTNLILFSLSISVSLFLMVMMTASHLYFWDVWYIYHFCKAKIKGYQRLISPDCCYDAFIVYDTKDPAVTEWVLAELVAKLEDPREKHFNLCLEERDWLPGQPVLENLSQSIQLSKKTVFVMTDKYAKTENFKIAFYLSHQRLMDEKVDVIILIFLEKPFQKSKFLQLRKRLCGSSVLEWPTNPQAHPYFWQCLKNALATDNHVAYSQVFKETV
Type: cell-based
Description: HEK293-Blue-hTLR-7 Cells Assay: A stable HEK293-Blue-hTLR-7 cell line was purchased from InvivoGen (Cat.#: hkb-htlr7, San Diego, Calif., USA). These cells were designed for studying the stimulation of human TLR7 by monitoring the activation of NF-κB. A SEAP (secreted embryonic alkaline phosphatase) reporter gene was placed under the control of the […] minimal promoter fused to five NF-κB and AP-1-binding sites. The SEAP was induced by activating NF-κB and AP-1 via stimulating HEK-Blue hTLR7 cells with TLR7 ligands. Therefore the reporter expression was regulated by the NF-κB promoter upon stimulation of human TLR7. The cell culture supernatant SEAP reporter activity was determined using QUANTI-Blue™ kit (Cat.#: rep-qb 1, Invivogen, San Diego, Ca, USA) at a wavelength of 640 nm, a detection medium that turns purple to blue in the presence of alkaline phosphatase. HEK293-Blue-hTLR7 cells were incubated at a density of 250,000˜450,000 cells/mL in a volume of 180 μL in a 96-well plate in Dulbecco's Modified Eagle's medium (DMEM) containing 4.5 g/l glucose, 50 U/ml penicillin, […], […], 2 mM L-glutamine, 10% (v/v) heat-inactivated fetal bovine serum for 24 h. Then the HEK293-Blue-hTLR-7 cells were incubated with addition of 20 μL test compound in a serial dilution in the presence of final DMSO at 1% and perform incubation under 37° C. in a CO2 incubator for 20 hours. Then 20 μL of the supernatant from each well was incubated with 180 μL Quanti-blue substrate solution at 37° C. for 1-3 hours and the absorbance was read at 620˜655 nm using a spectrophotometer.
Work on `CC[C@H](O)[C@H]1O[C@@H](n2c(=O)sc3c(=O)[nH]c(N)nc32)[C@H](CC(=O)OC)S1` [Example 4-P1, methyl 2-[(2S,4S,5R)-5-(5-amino-2,7-dioxo-6H-thiazolo[4,5-d]pyrimidin-3-yl)-2-[(1S)-1-hydroxypropyl]-1,3-oxathiolan-4-yl]acetate] yielded an EC50 of 13 µM. Work on `CC[C@H](O)[C@H]1O[C@@H](n2c(=O)sc3c(=O)[nH]c(N)nc32)[C@H](CC(=O)N(C)C)S1` [Example 7-P1, 2-[(2S,4S,5R)-5-(5-amino-2,7-dioxo-6H-thiazolo[4,5-d]pyrimidin-3-yl)-2-[(1S)-1-hydroxypropyl]-1,3-oxathiolan-4-yl]-N,N-dimethyl-acetamide] yielded an EC50 of 28 µM. For `CC[C@H](O)[C@H]1O[C@@H](n2c(=O)sc3c(=O)[nH]c(N)nc32)[C@H](CC(=O)O)S1` [Example 5-P1, 2-[(2S,4S,5R)-5-(5-amino-2,7-dioxo-6H-thiazolo[4,5-d]pyrimidin-3-yl)-2-[(1S)-1-hydroxypropyl]-1,3-oxathiolan-4-yl]acetic acid], the EC50 was 24 µM. `COC(=O)CC1SC(CO)OC1n1c(=O)sc2c(=O)[nH]c(N)nc21` (stereo not drawn) [Example 1-P1, methyl 2-[(trans-2,4-trans-4,5)-5-(5-amino-2,7-dioxo-6H-thiazolo[4,5-d]pyrimidin-3-yl)-2-hydroxymethyl)-1,3-oxathiolan-4-yl]acetate] was tested, and the EC50 was 317 µM. For `CC[C@H](O)[C@H]1O[C@@H](n2c(=O)sc3c(=O)[nH]c(N)nc32)[C@H](CC(=O)NC)S1` [Example 6-P1, 2-[(2S,4S,5R)-5-(5-amino-2,7-dioxo-6H-thiazolo[4,5-d]pyrimidin-3-yl)-2-[(1S)-1-hydroxypropyl]-1,3-oxathiolan-4-yl]-N-methyl-acetamide], the EC50 was 23 µM. Compound `C[C@H](O)C1OC(n2c(=O)sc3c(=O)[nH]c(N)nc32)C(CC(=O)O)S1` (single isomer, unassigned) [Example 10-P3] has an EC50 of 23 µM. In the case of `COC(=O)CC1SC([C@@H](O)C2CC2)OC1n1c(=O)sc2c(=O)[nH]c(N)nc21` (single isomer, unassigned) [Example 13-P3], the EC50 is reported as 15 µM. With `COC(=O)CC1SC([C@H](C)O)OC1n1c(=O)sc2c(=O)[nH]c(N)nc21` (single isomer, unassigned) [Example 9-P3] the EC50 was 22 µM. `C=CC[C@H](O)C1OC(n2c(=O)sc3c(=O)[nH]c(N)nc32)C(CC(=O)O)S1` (single isomer, unassigned) [Example 12-P3] showed an EC50 of 42 µM. With `Nc1nc2c(sc(=O)n2[C@@H]2O[C@H](CO)S[C@H]2CC(=O)O)c(=O)[nH]1` (relative stereo) [Example 2-P1, 2-[(trans-2,4-trans-4,5)-5-(5-amino-2,7-dioxo-6H-thiazolo[4,5-d]pyrimidin-3-yl)-2-(hydroxymethyl)-1,3-oxathiolan-4-yl]acetic acid] the EC50 was 144 µM. With `CCCC[C@H](O)C1OC(n2c(=O)sc3c(=O)[nH]c(N)nc32)C(CC(=O)O)S1` (single isomer, unassigned) [Example 11-P3] the EC50 was 321 µM. Compound `CN(C)C(=O)CC1SC(CO)OC1n1c(=O)sc2c(=O)[nH]c(N)nc21` (stereo not drawn) [Example 3-P1, 2-[(trans-2,4-trans-4,5)-5-(5-amino-2,7-dioxo-6H-thiazolo[4,5-d]pyrimidin-3-yl)-2-(hydroxymethyl)-1,3-oxathiolan-4-yl]-N,N-dimethyl-acetamide] has an EC50 of 469 µM. Work on `Nc1nc2c(sc(=O)n2C2OC([C@@H](O)C3CC3)SC2CC(=O)O)c(=O)[nH]1` (single isomer, unassigned) [Example 14-P3] yielded an EC50 of 10 µM. `CC[C@H](O)[C@H]1O[C@@H](n2c(=O)sc3c(=O)[nH]c(N)nc32)[C@H](CC(=O)N2CCOCC2)S1` [Example 8-P1, 5-amino-3-[(2S,4S,5R)-2-[(1S)-1-hydroxypropyl]-4-(2-morpholino-2-oxo-ethyl)-1,3-oxathiolan-5-yl]-6H-thiazolo[4,5-d]pyrimidine-2,7-dione] was tested, and the EC50 was 2.5 µM.

The compounds below were run on human hepatocytes (assay: Metabolic conversion of prodrugs in human hepatocytes). Settings: not given.
Type: in vitro ADME
Description: Metabolism of Prodrugs: Compounds of Formula (II) A study was undertaken to evaluate the metabolic conversion of prodrugs, compounds of formula (II) or (IIa), to compounds of formula (I) or (Ia) of the present invention. The prodrugs, compounds of formula (II) or (IIa), can be metabolized to the active compound of formula (I) or (Ia) and other compounds of the invention in the body if they are served as prodrugs. Hepatocytes are often used to assess the degree of metabolic conversion of prodrugs in the body of animal or human. A study was undertaken to evaluate the metabolic conversion of prodrug Example 15, to the corresponding active form, Example 5-P1, in the presence of human hepatocytes. The formation of active form, Example 5-P1, was monitored in the study. For comparison, the metabolic conversion of famciclovir to penciclovir was also assessed. Cryopreserved hepatocytes plating medium (Cat.#: PY-HMD-03) was purchased from RILD Research Institute for Liver Diseases (Shanghai) Co. Ltd. Cryopreserved human hepatocyte (Cat.#: X008005, Lot#:VRR) was purchased from BioreclamationIVT (Baltimore, Md.). The stock hepatocyte suspension was prepared from cryopreserved hepatocytes in plating medium at the concentration of 1.8×10^6 cells/mL. […] The compounds were quantified on an API5500 […] instrument in the ESI-Positive MRM mode.
In the case of `CC[C@H](OC(=O)c1ccccc1)[C@H]1O[C@@H](n2c(=O)sc3cnc(N)nc32)[C@H](CC(=O)OC)S1` [Example 15, [(1S)-1-[(2S,4S,5R)-5-(5-amino-2-oxo-thiazolo[4,5-d]pyrimidin-3-yl)-4-(2-methoxy-2-oxo-ethyl)-1,3-oxathiolan-2-yl]propyl]benzoate], the “Metabolic conversion of prodrug to active metabolite” value is reported as “metabolized to yield the corresponding active metabolites”. With `CC(=O)OCC(CCn1cnc2cnc(N)nc21)COC(C)=O` [Famciclovir, famciclovir, reference compound] the “Metabolic conversion of prodrug to active metabolite” value was “metabolized to yield the corresponding active metabolites”.
